Experimental data: ChEMBL document CHEMBL5465560, “Selectivity Literature for EUbOPEN Chemogenomic Library” (2024)

Key:
[1] = biological target: RAC-gamma serine/threonine-protein kinase (Homo sapiens, UniProt Q9Y243); experiment: Selectivity interaction (Kinase panel (DSF assay)) EUB0001559a AKT3
[2] = biological target: Serine/threonine-protein kinase Chk2 (Homo sapiens) (UniProt O96017); experiment: Selectivity interaction (KinomeScan (DiscoverX)) EUB0001079a CHEK2; details: at 1 µM
[3] = biological target: T1, Serine/threonine-protein kinase TNNI3K (Homo sapiens) (UniProt Q59H18); experiment: Selectivity interaction (KinomeScan (DiscoverX)) EUB0000618a TNNI3K; details: at 10 µM
T1 sequence (whole entry): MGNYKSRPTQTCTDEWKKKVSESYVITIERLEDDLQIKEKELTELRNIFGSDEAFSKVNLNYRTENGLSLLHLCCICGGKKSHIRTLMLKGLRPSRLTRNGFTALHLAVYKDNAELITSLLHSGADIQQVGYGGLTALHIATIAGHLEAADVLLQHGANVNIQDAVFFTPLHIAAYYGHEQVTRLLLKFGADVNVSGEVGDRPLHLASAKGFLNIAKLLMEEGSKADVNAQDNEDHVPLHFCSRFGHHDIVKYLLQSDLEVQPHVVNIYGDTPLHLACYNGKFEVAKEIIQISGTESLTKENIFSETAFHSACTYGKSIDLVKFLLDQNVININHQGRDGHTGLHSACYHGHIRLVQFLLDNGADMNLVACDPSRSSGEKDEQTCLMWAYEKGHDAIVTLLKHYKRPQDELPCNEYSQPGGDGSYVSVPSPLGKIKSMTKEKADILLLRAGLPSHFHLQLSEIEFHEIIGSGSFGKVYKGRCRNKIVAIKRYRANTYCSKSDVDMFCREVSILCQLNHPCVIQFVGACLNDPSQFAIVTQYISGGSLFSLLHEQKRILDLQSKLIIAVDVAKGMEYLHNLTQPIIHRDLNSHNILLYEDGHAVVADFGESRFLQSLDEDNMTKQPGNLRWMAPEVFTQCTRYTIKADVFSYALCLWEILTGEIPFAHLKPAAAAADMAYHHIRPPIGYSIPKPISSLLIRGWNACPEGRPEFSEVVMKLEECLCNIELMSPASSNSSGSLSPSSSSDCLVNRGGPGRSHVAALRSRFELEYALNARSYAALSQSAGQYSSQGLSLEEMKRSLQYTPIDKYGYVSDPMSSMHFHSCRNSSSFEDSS

[4] = biological target: Serine/threonine-protein kinase mTOR (Homo sapiens, UniProt P42345); experiment: Selectivity interaction (KinomeScan (DiscoverX)) EUB0000607a MTOR; details: at 10 µM
[5] = biological target: T2, Tyrosine-protein kinase receptor TYRO3 (Homo sapiens) (UniProt Q06418); experiment: Selectivity interaction (KinomeScan (DiscoverX)) EUB0000607a TYRO3; details: at 10 µM
T2 sequence (whole entry): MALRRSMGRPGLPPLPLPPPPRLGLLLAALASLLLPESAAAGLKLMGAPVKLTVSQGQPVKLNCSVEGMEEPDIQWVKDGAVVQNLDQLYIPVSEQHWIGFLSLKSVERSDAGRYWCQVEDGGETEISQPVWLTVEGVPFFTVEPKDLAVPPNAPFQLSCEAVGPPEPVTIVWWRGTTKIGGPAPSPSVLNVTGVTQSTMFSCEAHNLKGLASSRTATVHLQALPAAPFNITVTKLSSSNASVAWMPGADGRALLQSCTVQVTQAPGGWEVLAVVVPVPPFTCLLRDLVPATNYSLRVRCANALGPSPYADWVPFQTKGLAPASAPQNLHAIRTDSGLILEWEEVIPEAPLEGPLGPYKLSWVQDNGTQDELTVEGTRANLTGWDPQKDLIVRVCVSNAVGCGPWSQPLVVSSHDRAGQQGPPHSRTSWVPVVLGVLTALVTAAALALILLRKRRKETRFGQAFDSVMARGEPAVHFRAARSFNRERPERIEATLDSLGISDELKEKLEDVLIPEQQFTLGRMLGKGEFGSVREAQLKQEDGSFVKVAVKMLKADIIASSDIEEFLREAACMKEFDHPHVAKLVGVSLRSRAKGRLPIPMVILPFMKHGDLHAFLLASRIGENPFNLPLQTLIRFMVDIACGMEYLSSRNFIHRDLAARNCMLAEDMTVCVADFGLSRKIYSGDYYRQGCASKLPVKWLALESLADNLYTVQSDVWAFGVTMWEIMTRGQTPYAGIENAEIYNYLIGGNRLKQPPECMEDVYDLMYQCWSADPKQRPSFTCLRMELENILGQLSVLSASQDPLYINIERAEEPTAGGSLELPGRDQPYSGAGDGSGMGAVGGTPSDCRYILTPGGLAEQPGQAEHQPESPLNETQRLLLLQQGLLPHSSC

[6] = biological target: Mitogen-activated protein kinase kinase kinase kinase 5 (Homo sapiens) (UniProt Q9Y4K4); experiment: Selectivity interaction (KinomeScan (DiscoverX)) EUB0000045b MAP4K5
[7] = biological target: T3, Calcium/calmodulin-dependent protein kinase type IV (Homo sapiens) (UniProt Q16566); details: at 10 µM
T3 sequence (whole entry): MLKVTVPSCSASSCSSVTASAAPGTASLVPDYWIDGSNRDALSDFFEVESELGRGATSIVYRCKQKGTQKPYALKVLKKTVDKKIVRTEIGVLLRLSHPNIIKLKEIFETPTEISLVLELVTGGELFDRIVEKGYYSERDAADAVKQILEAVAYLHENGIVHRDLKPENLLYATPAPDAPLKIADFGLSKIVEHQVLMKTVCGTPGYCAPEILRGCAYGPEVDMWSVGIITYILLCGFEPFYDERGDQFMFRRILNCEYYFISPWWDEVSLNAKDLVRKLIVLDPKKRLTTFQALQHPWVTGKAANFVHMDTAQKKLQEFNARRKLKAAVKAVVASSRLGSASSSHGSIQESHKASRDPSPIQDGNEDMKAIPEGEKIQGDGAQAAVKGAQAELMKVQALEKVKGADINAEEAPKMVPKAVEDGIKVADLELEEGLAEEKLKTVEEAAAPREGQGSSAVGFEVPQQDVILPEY

[8] = biological target: Fibroblast growth factor receptor 4 (Homo sapiens, UniProt P22455); experiment: Selectivity interaction (KinomeScan (DiscoverX)) EUB0000229b FGFR4; details: at 10 µM
[9] = biological target: Serine/threonine-protein kinase 26 (Homo sapiens, UniProt Q9P289); experiment: Selectivity interaction (KinomeScan (DiscoverX)) EUB0000666a STK26; details: at 10 µM
Sequence of Serine/threonine-protein kinase 26 (Q9P289 2-416 limits assumed): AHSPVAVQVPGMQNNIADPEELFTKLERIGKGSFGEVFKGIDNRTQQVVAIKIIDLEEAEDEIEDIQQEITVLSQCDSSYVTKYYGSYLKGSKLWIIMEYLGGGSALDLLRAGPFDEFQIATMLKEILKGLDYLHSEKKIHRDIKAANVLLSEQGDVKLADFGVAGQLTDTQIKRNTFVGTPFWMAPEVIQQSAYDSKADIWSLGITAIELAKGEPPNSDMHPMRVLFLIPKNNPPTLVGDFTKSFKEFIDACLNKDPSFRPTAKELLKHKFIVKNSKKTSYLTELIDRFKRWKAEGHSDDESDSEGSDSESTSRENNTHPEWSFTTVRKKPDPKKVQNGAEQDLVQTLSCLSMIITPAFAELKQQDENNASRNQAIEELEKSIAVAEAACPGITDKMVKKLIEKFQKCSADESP

Sequence of Mitogen-activated protein kinase kinase kinase kinase 5 (Homo sapiens) (Q9Y4K4 whole entry, looked up): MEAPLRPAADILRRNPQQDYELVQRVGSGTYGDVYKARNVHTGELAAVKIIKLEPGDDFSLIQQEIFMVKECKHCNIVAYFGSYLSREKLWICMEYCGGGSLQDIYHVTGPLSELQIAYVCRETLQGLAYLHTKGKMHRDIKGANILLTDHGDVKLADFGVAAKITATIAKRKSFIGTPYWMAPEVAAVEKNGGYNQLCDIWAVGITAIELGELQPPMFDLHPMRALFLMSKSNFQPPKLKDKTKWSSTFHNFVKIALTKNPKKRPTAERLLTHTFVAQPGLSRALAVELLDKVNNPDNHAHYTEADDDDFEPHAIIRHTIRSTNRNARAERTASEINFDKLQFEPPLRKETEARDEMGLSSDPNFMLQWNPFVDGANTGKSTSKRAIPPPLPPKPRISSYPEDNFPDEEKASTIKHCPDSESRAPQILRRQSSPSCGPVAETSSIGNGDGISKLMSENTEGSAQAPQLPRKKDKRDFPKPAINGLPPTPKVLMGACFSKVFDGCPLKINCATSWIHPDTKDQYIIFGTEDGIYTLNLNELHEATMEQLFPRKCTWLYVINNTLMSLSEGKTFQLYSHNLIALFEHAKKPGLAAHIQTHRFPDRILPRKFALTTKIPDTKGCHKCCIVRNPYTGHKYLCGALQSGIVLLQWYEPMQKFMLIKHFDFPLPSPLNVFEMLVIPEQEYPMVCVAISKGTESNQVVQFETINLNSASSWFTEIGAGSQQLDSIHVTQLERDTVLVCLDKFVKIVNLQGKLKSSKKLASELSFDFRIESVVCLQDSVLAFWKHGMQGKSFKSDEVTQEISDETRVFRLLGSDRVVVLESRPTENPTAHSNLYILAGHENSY
Sequence of RAC-gamma serine/threonine-protein kinase (Q9Y243 whole entry): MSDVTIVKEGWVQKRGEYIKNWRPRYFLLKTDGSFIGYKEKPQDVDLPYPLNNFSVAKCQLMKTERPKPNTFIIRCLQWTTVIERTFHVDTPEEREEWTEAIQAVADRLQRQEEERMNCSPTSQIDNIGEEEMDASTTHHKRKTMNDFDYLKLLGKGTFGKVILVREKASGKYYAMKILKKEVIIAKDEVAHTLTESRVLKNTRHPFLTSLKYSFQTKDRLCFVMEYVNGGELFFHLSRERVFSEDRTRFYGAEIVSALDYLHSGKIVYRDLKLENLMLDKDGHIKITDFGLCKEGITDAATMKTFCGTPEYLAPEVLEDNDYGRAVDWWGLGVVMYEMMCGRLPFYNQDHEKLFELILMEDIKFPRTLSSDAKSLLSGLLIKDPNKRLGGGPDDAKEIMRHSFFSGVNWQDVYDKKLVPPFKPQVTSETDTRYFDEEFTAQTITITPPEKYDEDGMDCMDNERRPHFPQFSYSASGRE
Sequence of Serine/threonine-protein kinase Chk2 (Homo sapiens) (O96017 whole entry): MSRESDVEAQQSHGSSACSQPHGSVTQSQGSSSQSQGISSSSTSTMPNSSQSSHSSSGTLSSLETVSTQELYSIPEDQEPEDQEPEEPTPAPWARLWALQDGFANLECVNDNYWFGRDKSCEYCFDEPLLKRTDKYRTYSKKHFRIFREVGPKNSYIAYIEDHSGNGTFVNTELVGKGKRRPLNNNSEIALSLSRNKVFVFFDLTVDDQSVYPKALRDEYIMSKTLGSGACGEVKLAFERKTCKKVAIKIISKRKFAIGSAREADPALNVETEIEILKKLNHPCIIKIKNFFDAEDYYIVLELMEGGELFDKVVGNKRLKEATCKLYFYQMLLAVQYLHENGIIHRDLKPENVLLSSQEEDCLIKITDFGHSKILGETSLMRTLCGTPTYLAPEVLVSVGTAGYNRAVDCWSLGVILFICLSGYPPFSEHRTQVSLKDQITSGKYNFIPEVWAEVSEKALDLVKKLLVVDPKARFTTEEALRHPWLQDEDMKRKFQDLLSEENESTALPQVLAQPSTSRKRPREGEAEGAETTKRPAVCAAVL
Sequence of Fibroblast growth factor receptor 4 (P22455 22-802 limits assumed): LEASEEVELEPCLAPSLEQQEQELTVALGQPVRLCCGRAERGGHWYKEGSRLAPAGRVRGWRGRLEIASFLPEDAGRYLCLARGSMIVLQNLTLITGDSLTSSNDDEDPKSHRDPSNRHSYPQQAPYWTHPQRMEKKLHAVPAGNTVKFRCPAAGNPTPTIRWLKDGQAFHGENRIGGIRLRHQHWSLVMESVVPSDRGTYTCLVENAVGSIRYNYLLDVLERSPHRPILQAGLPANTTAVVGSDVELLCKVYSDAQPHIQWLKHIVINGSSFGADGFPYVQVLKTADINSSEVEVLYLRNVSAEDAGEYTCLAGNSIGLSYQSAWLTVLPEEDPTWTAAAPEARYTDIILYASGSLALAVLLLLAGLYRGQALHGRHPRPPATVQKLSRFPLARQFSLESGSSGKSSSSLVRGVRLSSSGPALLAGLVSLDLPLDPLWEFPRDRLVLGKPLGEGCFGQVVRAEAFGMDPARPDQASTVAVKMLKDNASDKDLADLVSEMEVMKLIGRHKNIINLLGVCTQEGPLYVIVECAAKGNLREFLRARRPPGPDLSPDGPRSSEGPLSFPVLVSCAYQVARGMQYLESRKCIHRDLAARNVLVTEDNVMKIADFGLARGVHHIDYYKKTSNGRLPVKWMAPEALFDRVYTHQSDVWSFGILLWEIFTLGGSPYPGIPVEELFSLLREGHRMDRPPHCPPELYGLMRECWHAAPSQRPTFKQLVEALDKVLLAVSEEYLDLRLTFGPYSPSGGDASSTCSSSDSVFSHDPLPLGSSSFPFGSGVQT

Compound `CN(C(=O)c1cnn2cccnc12)c1cc2c(cc1N1CCOCC1)C(=O)N(C[C@@H](F)C(C)(C)O)C2` has a dTM [1] of 0 K.

`Nc1cnc(N2CCc3cc(S(=O)(=O)Nc4c(F)cc(Cl)cc4F)cc(N4CCCC4=O)c32)nc1` [TP-020n] showed a % of control [2] of 92%.

With `O[C@H]1CC[C@H](Nc2ncc3nc(Nc4c(F)cc(F)cc4F)n([C@H]4CCOC4)c3n2)CC1` the % of control [3] was 100%.

`CNC(=O)Nc1ccc(-c2nc(N3CC4CCC(C3)O4)c3cnn(C4CCC5(CC4)OCCO5)c3n2)cc1` showed a % of control [4] of 5.7% and a % of control [5] of 100%.

For `C=CC(=O)Nc1cc(-n2c(=O)ccc3cnc4ccc(-c5ccc(NS(C)(=O)=O)cc5)cc4c32)ccc1C`, the % of control ([6]; at 1 µM) was 100% and the % of control ([6]; at 10 µM) was 74%.

`Cc1cc([C@@H](C)Nc2ccccc2C(=O)O)c2nc(N3CCOCC3)cc(=O)n2c1` [AZD-6482] was tested, and the % of control [7] was 100%.

`COc1cc(N(C)c2ccnc3ccc(C(F)(F)F)cc23)cc(OC)c1OC` was tested, and the % binding [8] was 100%.

`O=C(NOC[C@H](O)CO)c1ccc(F)c(F)c1Nc1ccc(I)cc1F` gave a % of control [9] of 77%.
